The values that follow come from ChEMBL document CHEMBL1146157, “Synthesis and SAR of 2-(4-fluorophenyl)-3-pyrimidin-4-ylimidazo[1,2-a]pyridine derivatives as anticoccidial agents” (Bioorg Med Chem Lett, 2006).

Molecules are shown by their SMILES.

For test [1], the system named is Eimeria acervulina. Put plainly: Antiparasitic activity against Eimeria acervulina in chicken at 25 ppm in feed assessed as percent reduction in oocyst. The test is classed as functional. The arrangement: scale not given: the % may be the effect or the level left.
The target of test [2] is cGMP-dependent protein kinase (Eimeria tenella, UniProt Q8MMZ8). Put plainly: Inhibition of Eimeria tenella PKG.
Test [3] has as its system Eimeria tenella. Put plainly: Antiparasitic activity against Eimeria tenella in chicken at 25 ppm in feed assessed as percent reduction in oocyst. The test is classed as functional. Details: scale not given: the % may be the effect or the level left.
Test [4] has as its system Eimeria tenella. The test can be described thus: Antiparasitic activity against Eimeria tenella in chicken at 50 ppm in feed assessed as percent reduction in oocyst. It counts as functional. The arrangement: scale not given: the % may be the effect or the level left.
Test [5] deals with Eimeria acervulina. The test can be described thus: Antiparasitic activity against Eimeria acervulina in chicken at 50 ppm in feed assessed as percent reduction in oocyst. It counts as functional. The arrangement: scale not given: the % may be the effect or the level left.

Sequence of cGMP-dependent protein kinase (Q8MMZ8 whole entry): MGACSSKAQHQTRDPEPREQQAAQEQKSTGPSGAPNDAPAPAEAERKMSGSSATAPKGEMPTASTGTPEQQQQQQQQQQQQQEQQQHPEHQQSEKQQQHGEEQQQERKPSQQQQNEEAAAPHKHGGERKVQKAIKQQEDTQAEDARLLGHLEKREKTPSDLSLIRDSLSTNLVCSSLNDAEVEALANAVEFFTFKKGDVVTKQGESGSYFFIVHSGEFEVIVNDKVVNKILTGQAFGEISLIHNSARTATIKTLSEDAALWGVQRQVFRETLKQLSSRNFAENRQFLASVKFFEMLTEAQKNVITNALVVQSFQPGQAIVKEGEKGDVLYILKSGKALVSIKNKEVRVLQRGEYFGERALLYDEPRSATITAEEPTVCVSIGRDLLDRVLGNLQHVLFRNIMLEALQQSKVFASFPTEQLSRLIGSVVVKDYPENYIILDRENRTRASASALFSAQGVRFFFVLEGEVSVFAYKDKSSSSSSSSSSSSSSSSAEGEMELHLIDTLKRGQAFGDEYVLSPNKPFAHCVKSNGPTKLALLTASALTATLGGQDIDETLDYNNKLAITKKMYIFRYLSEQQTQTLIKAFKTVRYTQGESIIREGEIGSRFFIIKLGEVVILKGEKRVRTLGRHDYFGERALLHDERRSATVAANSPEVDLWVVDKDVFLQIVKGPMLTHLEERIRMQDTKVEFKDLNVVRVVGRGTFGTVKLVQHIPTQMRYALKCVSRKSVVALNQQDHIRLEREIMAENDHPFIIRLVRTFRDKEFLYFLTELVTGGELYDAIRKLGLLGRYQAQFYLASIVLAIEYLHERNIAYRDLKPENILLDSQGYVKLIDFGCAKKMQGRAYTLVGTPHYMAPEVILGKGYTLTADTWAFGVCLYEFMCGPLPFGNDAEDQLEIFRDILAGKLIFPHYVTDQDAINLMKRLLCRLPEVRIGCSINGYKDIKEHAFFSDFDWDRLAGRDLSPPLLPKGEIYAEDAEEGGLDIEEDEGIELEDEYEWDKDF

Take `C[C@H](Nc1nccc(-c2c(-c3ccc(F)cc3)nc3cc(CN(C)C)ccn23)n1)c1ccccc1`: the Activity is given as under 50% in test [1] and “>=80%” in test [3]. Also, it took 0.47 nM to reach half-maximal inhibition in test [2] (IC50).

For the compound `C[C@@H](Nc1nccc(-c2c(-c3ccc(F)cc3)nc3cc(CN(C)C)ccn23)n1)c1ccccc1`, the Activity result in test [1] and in test [3] was “>=80%” in each case. For the same compound, in test [2], the IC50 (usually the concentration needed to halve the response being measured) stood at 0.32 nM.

Regarding `CN(C)Cc1ccn2c(-c3ccnc(OCc4ccccc4)n3)c(-c3ccc(F)cc3)nc2c1`, in test [2], it took 0.27 nM to reach half-maximal inhibition (IC50). The Activity in test [4] and in test [5] was under 50% throughout.

As to `CN(C)Cc1ccn2c(-c3ccnc(N(C)Cc4ccccc4)n3)c(-c3ccc(F)cc3)nc2c1`, the Activity in test [1] is given as 50%; in test [3], under 50%. For the same compound, half-maximal inhibition in test [2] (IC50) was put at 3 nM.
